The values that follow come from patent US20030232409A1, “Immortal porcine cells” (Regents of the University of Minnesota, priority 2002, published 2003).

The structures appear in SMILES notation.

The subject of one assay is PEGE1 cells. Put plainly: Short-circuit current (Isc) of cell monolayers in Ussing chambers, immortalized cells. Format: cell-based, porcine. The settings on record: for Mean 8 cpt cAMP-stimulated Isc / Mean 8 cpt cAMP-stimulated NPPB-sensitive Isc: n=6. How it is done: (§1) PEGE primary cells, isolated and cultured as previously described (Deachapunya and O'Grady, J. of Physiology, 508 (Part 1), 31-47 (1998)), and PEGE1 cells were used. Transepithelial resistance of cell monolayers was measured using the EVOM epithelial voltohmmeter coupled to Ag/AgCl “chopstick” electrodes (World Precision Instrument, New Haven, Conn.). After 10 days, the confluent culture inserts were mounted in Ussing Chambers, bathed on both sides with standard porcine Ringer solution which was maintained at 37° C., and bubbled with 95% O2 and 5% CO2. Transepithelial potential difference and Isc were measured with the use of voltage-clamp circuitry from JWT Engineering (Overland Park, Kans.). The data from the voltage clamp experiments was digitized, stored and analyzed using Workbench data acquisition software (Kent Scientific Corporation, Litchfield, Conn.) and recorded with a Compaq pentium microcomputer.
(§2) All values are presented as means±SEM. n is the number of monolayers. The differences between control and treatment means were analyzed using a t-test for paired or unpaired means where appropriate. A value of p<0.05 was considered statistically significant.

For assay [1], the system named is PEGE primary cells. In words: Short-circuit current (Isc) of cell monolayers in Ussing chambers, primary cells. It counts as cell-based, porcine. How it is done: as §1, §2
Assay [2] relates to PEGE primary cells. The note with it: serum-containing conditions, Deachapunya and O'Grady 1998; cited from earlier work.

With `NC(=NCc1ccccc1)NC(=O)c1nc(Cl)c(N)nc1N` [benzamil], the “Mean benzamil-sensitive Isc” value in the assay with PEGE1 cells (passage 19, 5 μM benzamil, n=15) amounted to 1.6 μA; in the assay with PEGE1 cells (passage 44-51, 5 μM benzamil, n=15), 1.7 μA; in the assay on PEGE primary cells [1] (passage 4, 5 μM benzamil, n=12) it was 0.5 μA.
In the case of `CCCCC[C@H](O)/C=C/[C@H]1[C@H](O)CC(=O)[C@@H]1C/C=C\CCCC(=O)O` [PGE2], the “Mean PGE2-stimulated Isc” value worked out at 69.0 μA in the assay with PEGE1 cells (passage 19, 3 μM PGE2, n=6); 35.0 μA with PEGE1 cells (passage 44-51, 3 μM PGE2, n=5); 40.3 μA in the assay on PEGE primary cells [1] (passage 4, 3 μM PGE2, n=5). Further, the “Effect of stimulation on Isc” value in the assay with PEGE primary cells [2] was “increase in Isc”.
In the case of `Nc1ncnc2c1nc(Sc1ccc(Cl)cc1)n2[C@@H]1O[C@@H]2COP(=O)(O)O[C@H]2[C@H]1O` [8 cpt cAMP, 8(4-chlorophenylthiol) cAMP], the “Mean 8 cpt cAMP-stimulated Isc” value is listed as 33.2 μA in the assay with PEGE1 cells (passage 19, 50 μM 8 cpt cAMP); 15.6 μA in the assay on PEGE1 cells (passage 44-51, 50 μM 8 cpt cAMP); 25.9 μA in the assay on PEGE primary cells [1] (passage 4, 50 μM 8 cpt cAMP, n=6).
Take `COc1ccc2c(c1)c(CC(=O)O)c(C)n2C(=O)c1ccc(Cl)cc1` [indomethecin]: the “Mean indomethecin-sensitive Isc” value amounted to 5.0 μA in the assay on PEGE1 cells (passage 19, 10 μM indomethecin, n=15); 0.6 μA in the assay with PEGE1 cells (passage 44-51, 10 μM indomethecin, n=14); 3.4 μA in the assay with PEGE primary cells [1] (passage 4, 10 μM indomethecin, n=12).
In the case of `O=C(O)c1cc([N+](=O)[O-])ccc1NCCCc1ccccc1` [NPPB, 5-nitro-2-(3phenylpropylamino) benzoic acid], the “Mean PGE2-stimulated NPPB-sensitive Isc” value was 33.4 μA in the assay with PEGE1 cells (passage 19, 100 μM NPPB after 3 μM PGE2, n=6); 12.5 μA in the assay with PEGE1 cells (passage 44-51, 100 μM NPPB after 3 μM PGE2, n=5); 24.9 μA in the assay on PEGE primary cells [1] (passage 4, 100 μM NPPB after 3 μM PGE2, n=5). The “Mean 8 cpt cAMP-stimulated NPPB-sensitive Isc” value in the assay on PEGE1 cells (passage 19, 100 μM NPPB after 50 μM 8 cpt cAMP) was determined as 24.3 μA; in the assay on PEGE1 cells (passage 44-51, 100 μM NPPB after 50 μM 8 cpt cAMP) it was 14.5 μA; in the assay on PEGE primary cells [1] (passage 4, 100 μM NPPB after 50 μM 8 cpt cAMP, n=6), 17.6 μA. In addition, the “Effect on PGE2- or cAMP-stimulated increase in Isc” value in the assay with PEGE primary cells [2] is “blocked”.
